Publication PMC9290002, “Development of Urea-Bond-Containing Michael Acceptors as Antitrypanosomal Agents Targeting Rhodesain” (ACS Medicinal Chemistry Letters, 2022)
Like-named read-outs stand apart in the source and are kept apart here.

Columns and labels:
rhodesain [1] = target: T1, rhodesain (Trypanosoma brucei rhodesiense, UniProt Q95PM0); experiment: Rhodesain fluorogenic enzyme assay (Cbz-Phe-Arg-AMC); format: biochemical; conditions: for Ki: dissociation constant of noncovalent E·I complex, corrected to zero substrate concentration; for Rhodesain k2nd: k2nd = kinact/Ki
T. b. brucei [2] = experiment: Antitrypanosomal activity against cultured T. b. brucei (ATPlite assay); format: cell-based; conditions: Trypanosoma brucei, 24 h
Experimental: All the urea derivatives were tested against cultured T. b. brucei, which expresses rhodesain similarly to T. b. rhodesiense. […] The difference in terms of rhodesain inhibition and antitrypanosomal activity observed for 1 could be due to its poor cell membrane permeability. In fact, we assume that the presence of substituents on the phenyl ring at the P3 position, as well as the extension of the aromatic region, could influence the crossing of cell membranes.
EC50 values for the antitrypanosomal activity were determined using the ATPlite assay as previously

[3] = target: human cathepsin L (hCatL) (Homo sapiens, UniProt P07711); experiment: Enzyme assay towards hCatL; format: biochemical
[4] = target: T2, main protease (Mpro) of SARS-CoV-2 (Severe acute respiratory syndrome coronavirus 2, UniProt P0DTD1); experiment: Enzyme assay towards SARS-CoV-2 Mpro, preliminary screening; format: biochemical; conditions: preliminary screening at 100 μM; read-out: SARS-CoV-2 Mpro percentage of inhibition
T2 construct: the main protease (M^pro) of SARS-CoV-2
Experimental: In light of this, dilution assays characterizing the mode of inhibition were not performed. Since poor inhibition was shown by the Phe-containing analogues, the Leu derivatives 25 and 26 were not tested against SARS-CoV-2 M^pro.
In all the manipulations regarding the biological evaluation, no unexpected or unusually high safety hazards […]
Enzyme assays towards rhodesain.
The biological activity against rhodesain was evaluated by fluorescence-based assays and all tested compounds were diluted in DMSO. Rhodesain was recombinantly expressed as previously reported2,3 and Cbz-Phe-Arg-AMC (10 µM) was used as the fluorogenic substrate. In the preliminary screening at 0.1 µM, the substrate hydrolysis was determined over a period of 10 min at rt and fluorescence intensity was measured every 30 seconds, whereas the kinetic parameters after the dilutions were determined over a period of 30 min. The assay buffer (pH 5.5) contains 50 mM of sodium acetate, 5 mM of EDTA, 200 mM of NaCl, and 0.005% of Brij 35. Enzyme buffer (pH 5.5) contains 5 mM of DTT and the same chemicals used for assay buffer, with exception of Brij 35. Each independent assay was carried-out twice in duplicate using 96-well-plates in a final volume of 200 µL. Infinity 200 PRO microplate (Tecan, Männedorf, Switzerland) was employed as the fluorescence reader, and a 380 nm excitation filter and a 460 nm emission filter were used.
The first-order inactivation rate costants (k obs) were determined analyzing the progress curves by nonlinear regression analysis using the equation 1 shown in the Chart S1. 4 The obtained k obs values were fitted against the inhibito concentrations to the hyperbolic equation 2, providing the k inact and K iapp values. The latter were corrected to zero substrate concentration by the term (1+[S]/K m) in equation 3. The K m value used to correct K iapp values was determined to 0.9 μM. 5 K i and k inac values were calculated by nonlinear regression analyses using GraFit.6 The second-order rate constants k 2nd = k inact/K i were easily determined from the […]
Chart S1. Equations 1, 2, and 3.
Enzyme assays towards hCatL.
The biological evaluation towards hCatL was performed following the procedure reported in the literature.7 Enzyme assays towards SARS-CoV-2 Mpro.
The biological activity of novel Michael acceptors 1-9 against SARS-CoV-2 M pro was carried-out following the previously described protocol.8
Antitrypanosomal activity.
(1 picture or pasted object on this page, not shown here)

rhodesain [5] = target: T1, rhodesain; conditions: cited from earlier work; for RD, k2nd: Figure 1
T. b. brucei [6] = system: T. b. brucei; set-up: method as in PMID 31714776, PMID 28763614; conditions: Figure 1; cited from earlier work
BSF of T.b. = system: BSF of T.b.; set-up: method as in PMID 19620707; conditions: bloodstream form; Figure 1; cited from earlier work

Sequence of human cathepsin L (hCatL) (P07711 114-333): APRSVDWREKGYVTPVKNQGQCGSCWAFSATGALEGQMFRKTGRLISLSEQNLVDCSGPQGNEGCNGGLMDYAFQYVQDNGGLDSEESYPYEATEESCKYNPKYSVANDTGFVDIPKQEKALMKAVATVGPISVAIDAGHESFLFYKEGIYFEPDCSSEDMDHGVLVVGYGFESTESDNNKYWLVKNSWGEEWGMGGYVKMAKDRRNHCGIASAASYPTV
T1 sequence (Q95PM0 entry or part of it): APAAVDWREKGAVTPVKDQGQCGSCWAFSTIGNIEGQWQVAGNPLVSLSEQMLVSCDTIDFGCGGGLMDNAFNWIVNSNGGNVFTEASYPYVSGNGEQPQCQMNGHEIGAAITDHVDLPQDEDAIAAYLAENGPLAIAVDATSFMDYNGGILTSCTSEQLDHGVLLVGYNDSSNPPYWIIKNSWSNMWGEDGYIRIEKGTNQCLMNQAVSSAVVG

Row | Structure (SMILES) | Ki (rhodesain [1]) [nM] | EC50 (T. b. brucei [2]) [nM] | Ki [3] [nM] | hCatL k2nd [3] | kinact [3] [s⁻¹] | inhibition at 100 µM [4] [%] | RD, k2nd (rhodesain [5]) [M⁻¹ s⁻¹] | EC50 (T. b. brucei [6]) [nM] | Rhodesain k2nd (rhodesain [1]) | Rhodesain k2nd (rhodesain [5]) | BSF of T.b., ED50 (BSF of T.b.) [nM] | Ki (rhodesain [5]) [nM] | Rhodesain kinact (rhodesain [5]) [min^–1]
1 | CC(=O)/C=C/[C@H](CCc1ccccc1)NC(=O)[C@H](CC(C)C)NC(=O)Nc1ccc(Cl)cc1C [compound 26, (S)-2-(3-(4-chloro-2-methylphenyl)ureido)-4-methyl-N-((S,E)-6-oxo-1-phenylhept-4-en-3-yl)pentanamide] | 0.93 ± 0.52 | 1120 ± 50 | 0.07 ± 0.03 | 14240 ± 5410 x 103M-1 min-1 | 1.42e-05 | – | – | – | – | – | – | – | –
2 | CC(=O)/C=C/[C@H](CCc1ccccc1)NC(=O)[C@H](Cc1ccccc1)NC(=O)Nc1ccc(C)cc1 [compound 3, (S)-N-((S,E)-6-Oxo-1-phenylhept-4-en-3-yl)-3-phenyl-2-(3-(p-tolyl)ureido)propanamide] | 0.51 ± 0.38 | 1390 ± 230 | 1.32 ± 0.25 | 360 ± 106 x 103M-1 min-1 | 7.5e-06 | 33 to 66 | – | – | – | – | – | – | –
3 | CC(=O)/C=C/[C@H](CCc1ccccc1)NC(=O)[C@H](Cc1ccccc1)NC(=O)c1ccc(F)cc1 [PS-1] | – | – | – | – | – | – | 1.47e+07 | 3600 | – | – | – | – | –
4 | CC(=O)/C=C/[C@H](CCc1ccccc1)NC(=O)[C@H](Cc1ccccc1)NC(=O)Nc1ccc(Cl)cc1 [compound 6, (S)-2-(3-(4-Chlorophenyl)ureido)-N-((S,E)-6-oxo-1-phenylhept-4-en-3-yl)-3-Phenylpropanamide] | 0.78 ± 0.13 | 1500 ± 240 | 3.11 ± 1.63 | 321 ± 152 x 103M-1 min-1 | 1.25e-05 | 33 to 66 | – | – | 2990 ± 300 ×10^3 M^–1 min^–1 | – | – | – | –
5 | CC(=O)/C=C/[C@H](CCc1ccccc1)NC(=O)[C@H](Cc1ccccc1)NC(=O)Nc1ccc(Cl)cc1C(F)(F)F [compound 8, (S)-2-(3-(4-Chloro-2-(trifluoromethyl)phenyl)ureido)-N-((S,E)-6-oxo-1-phenylhept-4-en-3-yl)-3-phenylpropanamide] | 1.04 ± 0.31 | 1280 ± 40 | 2.27 ± 0.43 | 256 ± 71 x 103M-1 min-1 | 9.17e-06 | 33 to 66 | – | – | 6050 ± 790 ×10^3 M^–1 min^–1 | – | – | – | –
6 | CC(=O)/C=C/[C@H](CCc1ccccc1)NC(=O)[C@H](Cc1ccccc1)NC(=O)Nc1ccc(Cl)cc1C [compound 7, (S)-2-(3-(4-Chloro-2-methylphenyl)ureido)-N-((S,E)-6-oxo-1-phenylhept-4-en-3-yl)-3-phenylpropanamide] | 0.51 ± 0.36 | 1650 ± 70 | 0.18 ± 0.03 | 3110 ± 160 x 103M-1 min-1 | 9.17e-06 | 33 to 66 | – | – | – | – | – | – | –
7 | CN1CCN(C(=O)N[C@@H](Cc2ccccc2)C(=O)N[C@H](/C=C/S(=O)(=O)c2ccccc2)CCc2ccccc2)CC1 [K11777] | – | – | – | – | – | – | 150000 | – | – | 9000 ×10^3 M^–1 min^–1 | 900 | – | –
8 | CC(=O)/C=C/[C@H](CCc1ccccc1)NC(=O)[C@H](Cc1ccccc1)NC(=O)Nc1ccc(F)cc1 [compound 4, (S)-2-(3-(4-Fluorophenyl)ureido)-N-((S,E)-6-oxo-1-phenylhept-4-en-3-yl)-3-phenylpropanamide] | 0.85 ± 0.07 | 1510 ± 80 | 0.1 ± 0.01 | 5880 ± 120 x 103M-1 min-1 | 1e-05 | 33 to 66 | – | – | 2480 ± 50 ×10^3 M^–1 min^–1 | – | – | – | –
9 | CC(=O)/C=C/[C@H](CCc1ccccc1)NC(=O)[C@H](Cc1ccccc1)NC(=O)Nc1cccc2ccccc12 [compound 9, (S)-2-(3-(Naphthalen-1-yl)ureido)-N-((S,E)-6-oxo-1-phenylhept-4-en-3-yl)-3-phenylpropanamide] | 2.51 ± 1.51 | 2280 ± 270 | 0.051 ± 0.001 | 12820 ± 1050 x 103M-1 min-1 | 1.08e-05 | 33 to 66 | – | – | 4170 ± 1360 ×10^3 M^–1 min^–1 | – | – | – | –
10 | CC(C)C[C@H](NC(=O)[C@H]1O[C@@H]1C(=O)O)C(=O)NCCCCN=C(N)N [E64] | – | – | – | – | – | – | – | – | – | 261 ± 27 ×10^3 M^–1 min^–1 | – | 35 ± 5 | 0.0090 ± 0.0004
11 | CC(=O)/C=C/[C@H](CCc1ccccc1)NC(=O)[C@H](Cc1ccccc1)NC(=O)Nc1c(F)cccc1F [compound 5, (S)-2-(3-(2,6-Difluorophenyl)ureido)-N-((S,E)-6-oxo-1-phenylhept-4-en-3-yl)-3-phenylpropanamide] | 1.13 ± 0.26 | 3200 ± 280 | 2.14 ± 0.25 | 326 ± 8 x 103M-1 min-1 | 1.17e-05 | 33 to 66 | – | – | 2030 ± 230 ×10^3 M^–1 min^–1 | – | – | – | –
12 | CC(=O)/C=C/[C@H](CCc1ccccc1)NC(=O)[C@H](CC(C)C)NC(=O)Nc1ccc(C)cc1 [compound 25, (S)-4-Methyl-N-((S,E)-6-oxo-1-phenylhept-4-en-3-yl)-2-(3-(p-tolyl)ureido)pentanamide] | 0.42 ± 0.08 | 1540 ± 90 | 0.64 ± 0.02 | 2120 ± 6 x 103M-1 min-1 | 2.25e-05 | – | – | – | – | – | – | – | –
13 | CC(=O)/C=C/[C@H](CCc1ccccc1)NC(=O)[C@H](Cc1ccccc1)NC(=O)OCc1ccccc1 [RK-52] | – | – | – | – | – | – | 1.12e+06 | 2970 | – | – | – | – | –
14 | CC(=O)/C=C/[C@H](CCc1ccccc1)NC(=O)[C@H](Cc1ccccc1)NC(=O)Nc1ccccc1 [compound 1, (S)-N-((S,E)-6-Oxo-1-phenylhept-4-en-3-yl)-3-phenyl-2-(3-phenylureido)propenamide] | 0.15 ± 0.06 | 19800 ± 2670 | 0.11 ± 0.01 | 5920 ± 150 x 103M-1 min-1 | 1e-05 | 33 to 66 | – | – | – | – | – | – | –
15 | COc1ccc(NC(=O)N[C@@H](Cc2ccccc2)C(=O)N[C@H](/C=C/C(C)=O)CCc2ccccc2)cc1 [compound 2, (S)-2-(3-(4-Methoxyphenyl)ureido)-N-((S,E)-6-oxo-1-phenylhept-4-en-3-yl)-3-phenylpropanamide] | 1.05 ± 0.33 | 2080 ± 220 | 81.9 ± 1.06 | 9 ± 1 x 103M-1 min-1 | 1.33e-05 | 33 to 66 | – | – | 5820 ± 490 ×10^3 M^–1 min^–1 | – | – | – | –
